Measurements reported in US4175081A, “5-Substituted thiadiazole ureas” (priority 1977, dated 1979).

What was measured:
Crabgrass (CG) [1] = experiment: Post-emergence herbicide test; format: in vivo, Digitaria sanquinalis; details: Digitaria sanguinalis, post-emergence, 336 h, two weeks after treatment
How it was run: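 Crabgrass (Digitaria sanquinalis) was surface seeded individually in 3' plastic pots of potting soil, covered with screened soil, and watered by sub-irrigation in greenhouse trays. Planting was staggered so seedlings reached the target stage together. Post-emergence sprays were applied in a hood with a removable belt and fixed nozzle, and control was visually rated two weeks after treatment.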

Cotton (CT) [2] = experiment: Post-emergence herbicide test; format: in vivo, Gossypium hirsutum var. DPL smooth leaf; details: Gossypium hirsutum, post-emergence, 336 h, two weeks after treatment
How it was run: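 Cotton (Gossypium hirsutum var. DPL smooth leaf) was grown in 3' plastic pots of potting soil, four seeds per pot, planted at a depth equal to the seed diameter and watered by sub-irrigation. At the stage of expanded cotyledons with the first true leaf 1' long, plants were sprayed post-emergence in a hood with a fixed nozzle over a moving belt. Percent control was rated visually two weeks later.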

Barnyard grass (BG) = experiment: Pre-emergence herbicide test; format: in vivo; details: Echinochloa crus-galli, 336 h, two weeks after treatment
How it was run: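 Barnyard grass surface-seeded in potting soil and sprayed pre-emergence one day after seeding, at 8 or 4 lb compound/acre in 38 gal/acre spray volume. Pots kept in greenhouse with sub-irrigation only; injury or control rated visually two weeks after treatment.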

Bean (BN) [3] = experiment: Pre-emergence herbicide test; format: in vivo, Phaseolus vulgaris var. Black Valentine; details: Phaseolus vulgaris, 336 h, two weeks after treatment
How it was run: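 Black Valentine bean was seeded in potting soil one day before spraying. Compound was applied pre-emergence at 8 lbs/acre (also 4 lbs/acre) in 38 gallons per acre. Plants were sub-irrigated and injury or control was rated visually after two weeks.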

Crabgrass (CG) [4] = experiment: Pre-emergence herbicide test; format: in vivo, Digitaria sanquinalis; details: Digitaria sanguinalis, pre-emergence, 336 h, two weeks after treatment
How it was run: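 Crabgrass (Digitaria sanquinalis) was surface seeded in 3' plastic pots of potting soil, covered with screened soil, and watered by sub-irrigation in greenhouse trays. Pots were seeded one day before spraying in a hood with a moving belt and fixed nozzle. Plants stayed in the greenhouse on sub-irrigation, and pre-emergence control was rated visually two weeks after treatment.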

Amaranth pigweed (PW) = experiment: Pre-emergence herbicide test; format: in vivo, Amaranthus retroflexus; details: 336 h, two weeks after treatment
Experimental: All crop and weed species were planted individually in 3' plastic pots containing potting soil. Four seeds each of corn, cotton, and snapbeans were seeded to a depth equal to the diameter of the seed. All other species were surface seeded and sprinkled with screened soil in an amount sufficient to cover the seed. Immediately after planting, all pots were watered by sub-irrigation in greenhouse trays. Pots for the pre-emergence phase were seeded one day before treatment.
Compounds were tested at rates of application equivalent to 8 lbs. of actual compound per acre in a spray volume of 38 gallons per acre. Spray hood constants required to deliver the above volume are as follows:
Formulations for spray applications were prepared in 50 ml volumes with the following three components:
Formulations for the 4 lbs/acre rate were prepared by adjusting the amount of active ingredient accordingly.
Spray applications were made in a hood containing a removable belt and fixed spray nozzle. For passage through the spray hood, one pot of each specie (pre-emergence phase) was placed on the rear half of the flat. Treatments were removed to the greenhouse after spraying. Watering during the observation period was done only by sub-irrigation.
Two weeks after treatment, pre- and post-emergence injury or control was visually rated, and the results were as shown in the following tables. Pre-emergence data are provided in TABLE III and post-emergence data are provided in TABLE IV, for compounds having the formula illustrated in TABLE I. Correspondingly, pre-emergence and post-emergence data, respectively, are set forth in TABLES V AND VI, for compounds having the formula illustrated in TABLE II.

Cotton (CT) [5] = experiment: Pre-emergence herbicide test; format: in vivo, Gossypium hirsutum var. DPL smooth leaf; details: Gossypium hirsutum, 336 h, two weeks after treatment
How it was run: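 Crop and weed species seeded one day before treatment, then sprayed pre-emergence at 8 lbs actual compound per acre (also 4 lbs/acre formulations) in 38 gallons per acre. Pots kept in greenhouse with sub-irrigation only; injury or control visually rated two weeks after treatment.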

Turnip (TP) [6] = experiment: Post-emergence herbicide test; format: in vivo, Brassica sp.; details: Brassica rapa, post-emergence, 336 h, two weeks after treatment
How it was run: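 A greenhouse post-emergence herbicide test on turnip. Seeds were sown on the surface of potting soil in 3' plastic pots, lightly covered with screened soil and watered from below. Planting was timed so seedlings had 1 or 2 true leaves above the cotyledons at spraying, done in a hood with a fixed nozzle. Control or injury was scored by eye after two weeks.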

Turnip (TP) [7] = experiment: Pre-emergence herbicide test; format: in vivo, Brassica sp.; details: Brassica rapa, pre-emergence, 336 h, two weeks after treatment
How it was run: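 Turnip (Brassica sp.) seeds were surface sown in 3' plastic pots of potting soil, covered with a thin layer of screened soil, and sub-irrigated in greenhouse trays. Pots were seeded one day ahead of treatment, sprayed pre-emergence under a hood with a fixed nozzle and moving belt, then kept in the greenhouse.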

Corn (CN) = experiment: Pre-emergence herbicide test; format: in vivo; details: Zea mays, 336 h, two weeks after treatment
How it was run: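 Four corn seeds per pot, sown at seed-diameter depth one day before spraying, got soil surface treatment at 8 lbs/acre (4 lbs/acre formulations also prepared) in 38 gallons/acre. Pots were greenhouse-held with sub-irrigation only. Injury or control was scored visually two weeks after treatment.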

Johnson grass (JG) = experiment: Pre-emergence herbicide test; format: in vivo, Sorgum helepense; details: Sorghum halepense, 336 h, two weeks after treatment
How it was run: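 Pots seeded one day before spraying; compound applied pre-emergence at 8 lbs/acre (or 4 lbs/acre) in 38 gallons/acre spray volume. Sub-irrigated in greenhouse; injury/control rated visually two weeks after treatment.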

Bean (BN) [8] = experiment: Post-emergence herbicide test; format: in vivo, Phaseolus vulgaris var. Black Valentine; details: Phaseolus vulgaris, post-emergence, 336 h, two weeks after treatment
How it was run: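 Snapbean (Phaseolus vulgaris var. Black Valentine) was tested post-emergence. Four seeds were sown in 3' plastic pots of potting soil at a depth equal to the seed diameter, then sub-irrigated in greenhouse trays. Planting dates were staggered so plants were sprayed once primary leaves had expanded, with the growing point at the primary leaf nodes.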

Question: What does the source list for `CCCCSc1nnc(N(C)C(=O)NC)s1` [Example 90]?
Answer: pest or weed control at 560.425 g/ha (Crabgrass (CG) [1]; 0.5 lb/acre): 30%; pest or weed control at 1120.85 g/ha (Crabgrass (CG) [1]; 1 lb/acre): 60%; pest or weed control (Crabgrass (CG) [1]; 2 lb/acre): 90%; pest or weed control at 4483.4 g/ha (Crabgrass (CG) [1]; 4 lb/acre): 90%; pest or weed control at 560.425 g/ha (Cotton (CT) [2]; 0.5 lb/acre): 100%; pest or weed control at 1120.85 g/ha (Cotton (CT) [2]; 1 lb/acre): 100%; pest or weed control at 2241.7 g/ha (Cotton (CT) [2]; 2 lb/acre): 100%; pest or weed control at 4483.4 g/ha (Cotton (CT) [2]; 4 lb/acre): 100%; pest or weed control at 560.425 g/ha (Barnyard grass (BG); 0.5 lb/acre): 10%; pest or weed control at 1120.85 g/ha (Barnyard grass (BG); 1 lb/acre): 10%; pest or weed control at 2241.7 g/ha (Barnyard grass (BG); 2 lb/acre): 90%; pest or weed control at 4483.4 g/ha (Barnyard grass (BG); 4 lb/acre): 90%; pest or weed control at 560.425 g/ha (Bean (BN) [3]; 0.5 lb/acre): 10%; pest or weed control at 1120.85 g/ha (Bean (BN) [3]; 1 lb/acre): 10%; pest or weed control at 2241.7 g/ha (Bean (BN) [3]; 2 lb/acre): 40%; pest or weed control at 4483.4 g/ha (Bean (BN) [3]; 4 lb/acre): 70%; pest or weed control at 560.425 g/ha (Crabgrass (CG) [4]; 0.5 lb/acre): 10%; pest or weed control at 1120.85 g/ha (Crabgrass (CG) [4]; 1 lb/acre): 10%; pest or weed control at 2241.7 g/ha (Crabgrass (CG) [4]; 2 lb/acre): 90%; pest or weed control at 4483.4 g/ha (Crabgrass (CG) [4]; 4 lb/acre): 90%; pest or weed control at 560.425 g/ha (Amaranth pigweed (PW); 0.5 lb/acre): 10%; pest or weed control at 1120.85 g/ha (Amaranth pigweed (PW); 1 lb/acre): 30%; pest or weed control at 2241.7 g/ha (Amaranth pigweed (PW); 2 lb/acre): 100%; pest or weed control at 4483.4 g/ha (Amaranth pigweed (PW); 4 lb/acre): 100%; pest or weed control at 560.425 g/ha (Cotton (CT) [5]; 0.5 lb/acre): 10%; pest or weed control at 1120.85 g/ha (Cotton (CT) [5]; 1 lb/acre): 10%; pest or weed control at 2241.7 g/ha (Cotton (CT) [5]; 2 lb/acre): 30%; pest or weed control at 4483.4 g/ha (Cotton (CT) [5]; 4 lb/acre): 50%; pest or weed control at 560.425 g/ha (Turnip (TP) [6]; 0.5 lb/acre): 90%; pest or weed control at 1120.85 g/ha (Turnip (TP) [6]; 1 lb/acre): 100%; pest or weed control at 2241.7 g/ha (Turnip (TP) [6]; 2 lb/acre): 100%; pest or weed control at 4483.4 g/ha (Turnip (TP) [6]; 4 lb/acre): 100%; pest or weed control at 560.425 g/ha (Turnip (TP) [7]; 0.5 lb/acre): 10%; pest or weed control at 1120.85 g/ha (Turnip (TP) [7]; 1 lb/acre): 10%; pest or weed control at 2241.7 g/ha (Turnip (TP) [7]; 2 lb/acre): 60%; pest or weed control at 4483.4 g/ha (Turnip (TP) [7]; 4 lb/acre): 80%; pest or weed control at 560.425 g/ha (Corn (CN); 0.5 lb/acre): 10%; pest or weed control at 1120.85 g/ha (Corn (CN); 1 lb/acre): 10%; pest or weed control at 2241.7 g/ha (Corn (CN); 2 lb/acre): 10%; pest or weed control at 4483.4 g/ha (Corn (CN); 4 lb/acre): 30%; pest or weed control at 560.425 g/ha (Johnson grass (JG); 0.5 lb/acre): 10%; pest or weed control at 1120.85 g/ha (Johnson grass (JG); 1 lb/acre): 10%; pest or weed control at 2241.7 g/ha (Johnson grass (JG); 2 lb/acre): 50%; pest or weed control at 4483.4 g/ha (Johnson grass (JG); 4 lb/acre): 50%; pest or weed control at 560.425 g/ha (Bean (BN) [8]; 0.5 lb/acre): 90%; pest or weed control at 1120.85 g/ha (Bean (BN) [8]; 1 lb/acre): 100%; pest or weed control at 2241.7 g/ha (Bean (BN) [8]; 2 lb/acre): 100%; pest or weed control at 4483.4 g/ha (Bean (BN) [8]; 4 lb/acre): 100%
